The nature of test [1]: Inhibition of full-length human GCYH1A expressed in Escherichia coli using GTP as substrate incubated for 30 mins by fluorescence based assay.
Test [2] in a line: Inhibition of Neisseria gonorrhoeae GCYH1B.
Test [3] in a line: Inhibition of recombinant full-length Neisseria gonorrhoeae N-terminal His6-tagged GCYH1B expressed in Escherichia coli BL21 (DE3) using GTP as substrate incubated for 50 to 60 mins by fluorescence based assay.
Test [4] is described as follows: Inhibition of Thermus thermophilus HB8 GCYH1A expressed in Escherichia coli BL21 (DE3) using GTP as substrate incubated for 60 to 180 mins by spectrofluorimetric analysis.

For orientation: IC50 means the concentration at which inhibition is half-maximal. Low values mean inhibition by little substance, high ones a need for much substance. As for `Nc1nc(OC[C@H](O)CO)c2[nH]c(=O)n([C@@H]3O[C@H](CO)[C@@H](O)[C@H]3O)c2n1`, the IC50 in test [1] is 409 µM; in test [2], 134 µM.

`Nc1nc(OC[C@@H](O)CO)c2[nH]c(=O)n([C@@H]3O[C@H](CO)[C@@H](O)[C@H]3O)c2n1`: the IC50 amounted to 372 µM in test [1] and 164 µM in test [2].

Usually Ki stands for a dissociation constant, usually derived from enzyme kinetics or from competition with a known ligand. Consider `Nc1nc2c([nH]c(=O)n2[C@@H]2O[C@H](CO[P@@](=O)(O)O[P@@](=O)(O)OP(=O)(O)O)[C@@H](O)[C@H]2O)c(=O)[nH]1`, for which the inhibition constant Ki in test [3] worked out at 0.15 µM; in test [4], 0.0054 µM.

`Nc1nc(OCCO)c2[nH]c(=O)n([C@@H]3O[C@H](CO)[C@@H](O)[C@H]3O)c2n1`: the IC50 in test [1] is 221 µM; in test [2], 413 µM.

In turn, `COc1nc2c(=O)[nH]c(N)nc2n1[C@@H]1O[C@H](CO)[C@@H](O)[C@H]1O` showed an IC50 in test [2] of 372 µM.

For the origin of these results see ChEMBL document CHEMBL4613223, “Structure-based design of guanosine analogue inhibitors targeting GTP cyclohydrolase IB towards a new class of antibiotics” (Bioorg Med Chem Lett, 2020).
